Laboratory results: ChEMBL document CHEMBL1201862, “PubChem BioAssay data set” (2004)
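Five concentrations, 48 hours, 96-well plates. Here, GI50 denotes the concentration required for 50% inhibition of growth.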 Active and inactive are the calls of the source. Rule as the data show it: active = GI50 up to about 1.1 µM and inactive = higher.

Columns and labels:
Test in all cases: DTP human tumour cell line panel, 48 h
HT-29 = tested on: HT-29
K562 = tested on: K562
UO-31 = tested on: UO-31
UACC-257 = tested on: UACC-257
MDA-MB-231 = tested on: MDA-MB-231
MOLT-4 = tested on: MOLT-4
HCT-15 = tested on: HCT-15
TK-10 = tested on: TK-10
SK-MEL-28 = tested on: SK-MEL-28
UACC-62 = tested on: UACC-62
SK-MEL-5 = tested on: SK-MEL-5
SK-OV-3 = tested on: SK-OV-3
BT-549 = tested on: BT-549
OVCAR-8 = tested on: OVCAR-8
Malme-3M = tested on: Malme-3M
LOX IMVI = tested on: LOX IMVI
CCRF-CEM = tested on: CCRF-CEM
HL-60 = tested on: HL-60

## N#CCCN(CCC#N)c1ccc(C(/N=N/c2ccc(Cl)cc2)=N\c2ccccc2)cc1
HT-29
  GI50: 17.9 µM (inactive)
K562
  GI50: 41.7 µM (inactive)
UO-31
  GI50: 8.91 µM (inactive)
UACC-257
  GI50: 7.83 µM (inactive)
MDA-MB-231
  GI50: 18.1 µM (inactive)
MOLT-4
  GI50: 22.7 µM (inactive)
HCT-15
  GI50: 5.93 µM
TK-10
  GI50: 15.5 µM (inactive)
SK-MEL-28
  GI50: 15.3 µM (inactive)
UACC-62
  GI50: 6.49 µM (inactive)
SK-MEL-5
  GI50: 1.24 µM (inactive)
SK-OV-3
  GI50: 13.2 µM (inactive)
BT-549
  GI50: 3.33 µM (inactive)
OVCAR-8
  GI50: 15.1 µM (inactive)

## C/C(=C\C(=O)O)C(=O)N(C)c1ccccc1I
K562
  GI50: > 100 µM (inactive)
UO-31
  GI50: > 100 µM (inactive)
UACC-257
  GI50: > 100 µM (inactive)
MDA-MB-231
  GI50: > 100 µM (inactive)
MOLT-4
  GI50: > 100 µM (inactive)
HCT-15
  GI50: > 100 µM
Malme-3M
  GI50: > 100 µM (inactive)
LOX IMVI
  GI50: > 100 µM (inactive)
SK-MEL-28
  GI50: > 100 µM (inactive)
UACC-62
  GI50: > 100 µM (inactive)
SK-MEL-5
  GI50: > 100 µM (inactive)
CCRF-CEM
  GI50: > 100 µM (inactive)
SK-OV-3
  GI50: > 100 µM (inactive)
OVCAR-8
  GI50: > 100 µM (inactive)

## Oc1c(Cl)c(Cl)c(O)c(CCNc2ccc3ncccc3c2)c1Cl
HT-29
  GI50: 30.1 µM (inactive)
K562
  GI50: 3.47 µM (inactive)
UO-31
  GI50: 12.2 µM (inactive)
UACC-257
  GI50: 17.9 µM (inactive)
MOLT-4
  GI50: 1.15 µM (inactive)
HCT-15
  GI50: 14.9 µM
TK-10
  GI50: 13.4 µM (inactive)
Malme-3M
  GI50: 18.6 µM (inactive)
SK-MEL-28
  GI50: 24.5 µM (inactive)
UACC-62
  GI50: 10.9 µM (inactive)
SK-MEL-5
  GI50: 1.88 µM (inactive)
HL-60
  GI50: 5.07 µM (inactive)
SK-OV-3
  GI50: 11.8 µM (inactive)
OVCAR-8
  GI50: 12.1 µM (inactive)

## CCCCCCCCCCN(CCCCCCCCCC)C(=O)COc1c2cc(C(C)(C)C)cc1Cc1cc(C(C)(C)C)cc(c1OCC(=O)N(CCCCCCCCCC)CCCCCCCCCC)Cc1cc(C(C)(C)C)cc(c1OCC(=O)N(CCCCCCCCCC)CCCCCCCCCC)Cc1cc(C(C)(C)C)cc(c1OCC(=O)N(CCCCCCCCCC)CCCCCCCCCC)C2
HT-29
  GI50: 2.34 µM (inactive)
K562
  GI50: 1.9 µM (inactive)
UO-31
  GI50: 22 µM (inactive)
UACC-257
  GI50: 15.6 µM (inactive)
MDA-MB-231
  GI50: 17.6 µM (inactive)
MOLT-4
  GI50: 2.76 µM (inactive)
HCT-15
  GI50: 8.77 µM
TK-10
  GI50: 18.8 µM (inactive)
Malme-3M
  GI50: 15 µM (inactive)
LOX IMVI
  GI50: 10.2 µM (inactive)
SK-MEL-28
  GI50: 11.3 µM (inactive)
UACC-62
  GI50: 12.6 µM (inactive)
SK-MEL-5
  GI50: 13.5 µM (inactive)
HL-60
  GI50: 15 µM (inactive)
CCRF-CEM
  GI50: 4.66 µM (inactive)
SK-OV-3
  GI50: 14.4 µM (inactive)
OVCAR-8
  GI50: 4.16 µM (inactive)

## COC1(OC)CCc2c(sc3ncnc(Nc4cccc(Br)c4)c23)C1
HT-29
  GI50: 20 µM (inactive)
K562
  GI50: 26.2 µM (inactive)
UO-31
  GI50: 3.22 µM (inactive)
UACC-257
  GI50: 87.3 µM (inactive)
MDA-MB-231
  GI50: 49.5 µM (inactive)
MOLT-4
  GI50: 14.2 µM (inactive)
HCT-15
  GI50: 30.8 µM
TK-10
  GI50: 10.6 µM (inactive)
Malme-3M
  GI50: 41.5 µM (inactive)
LOX IMVI
  GI50: 35.7 µM (inactive)
UACC-62
  GI50: 47.2 µM (inactive)
SK-MEL-5
  GI50: 30.9 µM (inactive)
SK-OV-3
  GI50: > 100 µM (inactive)
BT-549
  GI50: 94.2 µM (inactive)
OVCAR-8
  GI50: 34.6 µM (inactive)

## Nc1ccc2c(c1)C(=O)c1ccc(F)cc1-2
HT-29
  GI50: > 100 µM (inactive)
K562
  GI50: > 100 µM (inactive)
UO-31
  GI50: > 100 µM (inactive)
UACC-257
  GI50: > 100 µM (inactive)
MDA-MB-231
  GI50: > 100 µM (inactive)
MOLT-4
  GI50: 57.8 µM (inactive)
HCT-15
  GI50: > 100 µM
TK-10
  GI50: > 100 µM (inactive)
LOX IMVI
  GI50: > 100 µM (inactive)
SK-MEL-28
  GI50: > 100 µM (inactive)
UACC-62
  GI50: > 100 µM (inactive)
SK-MEL-5
  GI50: > 100 µM (inactive)
HL-60
  GI50: > 100 µM (inactive)
CCRF-CEM
  GI50: > 100 µM (inactive)
SK-OV-3
  GI50: > 100 µM (inactive)
BT-549
  GI50: > 100 µM (inactive)
OVCAR-8
  GI50: > 100 µM (inactive)

## CC1=NN(c2cccc(Cl)c2)C2(SCC(=O)N2c2nc3ccccc3s2)/C1=C\c1ccccc1 (stereo not drawn)
HT-29
  GI50: 21 µM (inactive)
K562
  GI50: 17.6 µM (inactive)
UO-31
  GI50: 20.1 µM (inactive)
UACC-257
  GI50: 21.9 µM (inactive)
MDA-MB-231
  GI50: 24.4 µM (inactive)
MOLT-4
  GI50: 21.2 µM (inactive)
HCT-15
  GI50: 16 µM
TK-10
  GI50: 40.6 µM (inactive)
LOX IMVI
  GI50: 25.5 µM (inactive)
SK-MEL-28
  GI50: 27.5 µM (inactive)
SK-MEL-5
  GI50: 12.6 µM (inactive)
HL-60
  GI50: 30.1 µM (inactive)
CCRF-CEM
  GI50: 28.2 µM (inactive)
SK-OV-3
  GI50: 19.9 µM (inactive)
OVCAR-8
  GI50: 19.5 µM (inactive)

## Cc1ccccc1Nc1cn(CCOc2ccccc2)c(=O)n(CCOc2ccccc2)c1=O
HT-29
  GI50: > 100 µM (inactive)
K562
  GI50: > 100 µM (inactive)
UO-31
  GI50: > 100 µM (inactive)
UACC-257
  GI50: > 100 µM (inactive)
MOLT-4
  GI50: > 100 µM (inactive)
HCT-15
  GI50: > 100 µM
Malme-3M
  GI50: 3.33 µM (inactive)
LOX IMVI
  GI50: > 100 µM (inactive)
SK-MEL-28
  GI50: > 100 µM (inactive)
UACC-62
  GI50: > 100 µM (inactive)
SK-MEL-5
  GI50: > 100 µM (inactive)
HL-60
  GI50: > 100 µM (inactive)
CCRF-CEM
  GI50: > 100 µM (inactive)
BT-549
  GI50: > 100 µM (inactive)

## CC(=O)OCC1OC(OCC2OC(N3C(=S)N[C@H]([C@@H](O)[C@H](O)[C@H](O)CO)[C@H]3O)C(OC(C)=O)C(OC(C)=O)C2OC(C)=O)C(OC(C)=O)C(OC(C)=O)C1OC(C)=O (stereo partly drawn)
HT-29
  GI50: 65.6 µM (inactive)
K562
  GI50: 28.6 µM (inactive)
UO-31
  GI50: > 100 µM (inactive)
MDA-MB-231
  GI50: > 100 µM (inactive)
MOLT-4
  GI50: > 100 µM (inactive)
HCT-15
  GI50: > 100 µM
TK-10
  GI50: > 100 µM (inactive)
Malme-3M
  GI50: > 100 µM (inactive)
SK-MEL-28
  GI50: > 100 µM (inactive)
UACC-62
  GI50: > 100 µM (inactive)
SK-MEL-5
  GI50: > 100 µM (inactive)
SK-OV-3
  GI50: > 100 µM (inactive)
OVCAR-8
  GI50: 43.9 µM (inactive)
